The subject of series [1] is skin. The following applies: cited from earlier work.
The conditions of series [2]: laboratory study; cited from earlier work.
The conditions of series [3]: concentrations higher than in products; attributed to formaldehyde release; cited from earlier work.
Series [4] deals with skin. The following applies: clinical studies; could be related to formaldehyde release; cited from earlier work.
Series [5] is described as follows: Examination of 1.0% THI cream on a mixing plate. As to conditions: 100 mg THI in 10 g base cream (1.0%). Type of series: physicochemical. As for the experimental part: A topical formulation containing 100 mg of THI in 10 g of base cream was prepared as follows. […] A smooth cream was obtained by levigation in a marble mortar and pestle. A dime-sized portion of the […] material was then incorporate geometrically with similar-sized portions of base and mixed thoroughly. […] Application of the finished cream to the skin left no residue.

In series [6] the target is T1, S1P lyase (Mus musculus, UniProt Q8R0X7).
T1 sequence (Q8R0X7 1-568): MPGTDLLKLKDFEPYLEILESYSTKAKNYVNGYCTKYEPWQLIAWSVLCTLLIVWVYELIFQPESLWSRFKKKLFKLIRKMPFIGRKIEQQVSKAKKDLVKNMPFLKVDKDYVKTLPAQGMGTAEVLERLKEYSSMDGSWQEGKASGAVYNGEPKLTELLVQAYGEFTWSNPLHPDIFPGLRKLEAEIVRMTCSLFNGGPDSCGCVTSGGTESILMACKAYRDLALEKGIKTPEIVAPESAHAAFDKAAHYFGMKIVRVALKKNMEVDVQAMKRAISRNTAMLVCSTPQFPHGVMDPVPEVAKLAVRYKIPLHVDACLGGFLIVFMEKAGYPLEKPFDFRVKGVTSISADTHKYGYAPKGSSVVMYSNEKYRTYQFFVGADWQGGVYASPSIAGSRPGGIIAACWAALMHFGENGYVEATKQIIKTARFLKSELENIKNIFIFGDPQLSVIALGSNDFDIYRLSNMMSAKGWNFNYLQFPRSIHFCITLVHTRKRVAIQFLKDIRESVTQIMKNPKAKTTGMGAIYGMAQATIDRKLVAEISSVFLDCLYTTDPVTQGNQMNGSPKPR
The following applies: when administered to mice; cited from earlier work.

Series [7] concerns rats. As to conditions: administration to rats; cited from earlier work.
Series [8] has as its system mice. The following applies: administration to mice; cited from earlier work.
Series [9] deals with humans. As to conditions: studies in humans; cited from earlier work.
The conditions of series [10]: chronic studies; cited from earlier work.
For series [11], the system named is skin. As to conditions: human exposure studies and clinical experience; cited from earlier work.
The conditions of series [12]: subchronic oral, high doses; cited from earlier work.
The conditions of series [13]: dermal laboratory studies; cited from earlier work.
In series [14] the test system is skin. As to conditions: clinical studies; cited from earlier work.
The conditions of series [15]: in vivo; cited from earlier work.
Series [16] has as its system eye. As to conditions: in vivo; cited from earlier work.
The conditions of series [17]: in vivo; cited from earlier work. This is another data set of the same source.

For `CC1(C)C(=O)N(CO)C(=O)N1CO` [DMDM hydantoin, 1,3-Bis(hydroxymethyl)-5,5-dimethylimidazolidine-2,4-dione], in [1], the “absorption from the skin” value was “poorly absorbed from the skin”. Besides, the “adverse effects of oral exposure” value in series [2] was “did not result in any adverse effects”. Also, the in vitro mutagenicity result in [3] is reported as “positive results in some in vitro mutagenicity studies”. The skin irritation result in [4] was “some observations of skin irritation”.
For `CC(=O)c1nc(C(O)C(O)C(O)CO)c[nH]1` (stereo not shown) [THI, 2-acetyl-4-tetrahydroxybutylimidazole], the “dissolution of THI in the cream base” value in series [5] is reported as “at least partially dissolving in the cream base”. Moreover, the S1P lyase activity result in series [6] is on record as “inhibits S1P lyase activity”. Moreover, in series [7], the “accumulation of mature T cells in the thymus” value was “causes the accumulation of mature T cells in the thymus” and the lymphopenia result is recorded as “induces lymphopenia”. In series [8], the “accumulation of mature T cells in the thymus” value is reported as “causes the accumulation of mature T cells in the thymus” and the lymphopenia result is “induces lymphopenia”. Further, the “immunological effects in humans” value in [9] is listed as “no immunological effects”.
Regarding `CCCCCCCCCCCCCCCCCC(=O)OCC(O)CO` (stereo not shown) [glyceryl stearate, Glyceryl stearate], in series [10], the carcinogenic effects result was “no carcinogenic effects” and the effects on reproduction entry is on record as “no adverse effects on reproduction”. In [11], the “sensitization, phototoxicity, photosensitization” value is “non-sensitizing, non-phototoxic and non-photosensitizing”.
On to `OCCOc1ccccc1` [phenoxyethanol, 2-Phenoxyethanol], for which the organ weights entry in series [12] is “increased weights of some organs”. Also, the birth defects result in series [13] is “did not cause any birth defects”. In [14], the delayed hypersensitivity result is on record as “did not cause delayed hypersensitivity”; the phototoxicity entry is “nonphototoxic”; the “primary and cumulative irritation” value is recorded as “neither a primary nor a cumulative irritant”. Also, the “toxicity via oral and dermal administration” value in series [15] is recorded as “practically nontoxic”.
Take Carbomer: in [16], the eye irritation entry is “no to moderate eye irritation”.
For the compound PEG-100 stearate, the “changes in growth, histopathologic observations or hematologic values” in series [17] is reported as “no significant changes”.

The record behind these values is patent US10624877B2, “Composition and method for treatment of symptoms associated with various skin conditions” (priority 2011, dated 2020).
